In paper PMC7714403 (JCI Insight, 2020):
Read-outs that look alike come from different tables or passages of the source.

Experiments:
Experiment in all cases: KiNativ, MOLM13 live cells
Type in all cases: cell-based
[1] = biological target: ACK (Homo sapiens, UniProt Q07912); details: MOLM-13; 100 nM, 2 hours; Lys1; read-out: Inhibition vs DMSO
Method: (§1) Samples were analyzed by KiNativ in situ kinase profiling by ActivX Biosciences.

[2] = biological target: CDK10 (Homo sapiens, UniProt Q15131); details: MOLM-13; 100 nM, 2 hours; Lys2; read-out: Inhibition vs DMSO
Method: as §1

[3] = biological target: CDK7 (Homo sapiens, UniProt P50613); details: MOLM-13; 100 nM, 2 hours; Lys2; read-out: Inhibition vs DMSO
Method: as §1

[4] = biological target: FES (Homo sapiens, UniProt P07332); details: MOLM-13; 100 nM, 2 hours; Lys1; read-out: Inhibition vs DMSO
Method: as §1

[5] = biological target: IKKa (Homo sapiens, UniProt O15111); details: MOLM-13; 100 nM, 2 hours; Lys2; read-out: Inhibition vs DMSO
Method: as §1

[6] = biological target: T1, IKKb (Homo sapiens, UniProt O14920); details: MOLM-13, 2 h, 100 nM
T1 sequence (O14920 1-756): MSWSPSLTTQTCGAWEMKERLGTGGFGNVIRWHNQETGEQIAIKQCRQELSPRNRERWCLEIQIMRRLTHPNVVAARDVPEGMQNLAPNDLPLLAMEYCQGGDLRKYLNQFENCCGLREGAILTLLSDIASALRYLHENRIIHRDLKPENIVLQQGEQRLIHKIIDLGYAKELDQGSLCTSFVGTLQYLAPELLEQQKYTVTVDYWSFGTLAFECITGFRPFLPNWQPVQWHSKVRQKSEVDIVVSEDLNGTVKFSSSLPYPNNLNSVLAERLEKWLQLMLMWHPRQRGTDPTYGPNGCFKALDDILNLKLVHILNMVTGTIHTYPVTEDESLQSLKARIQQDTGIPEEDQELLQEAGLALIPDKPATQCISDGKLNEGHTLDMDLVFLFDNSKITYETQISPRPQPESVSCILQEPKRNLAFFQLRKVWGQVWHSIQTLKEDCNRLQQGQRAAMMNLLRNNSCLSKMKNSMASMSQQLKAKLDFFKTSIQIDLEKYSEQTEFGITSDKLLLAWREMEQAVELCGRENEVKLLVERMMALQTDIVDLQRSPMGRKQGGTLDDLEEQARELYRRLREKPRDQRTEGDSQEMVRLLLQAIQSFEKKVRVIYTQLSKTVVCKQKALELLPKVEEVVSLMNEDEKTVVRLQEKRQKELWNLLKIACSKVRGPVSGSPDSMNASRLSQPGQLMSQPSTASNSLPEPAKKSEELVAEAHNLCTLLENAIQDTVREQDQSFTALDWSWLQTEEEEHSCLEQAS
Method: as §1

[7] = biological target: T2, IRAK4 (Homo sapiens, UniProt Q9NWZ3); details: 100 nM, 2 hours
T2 sequence (Q9NWZ3 1-460): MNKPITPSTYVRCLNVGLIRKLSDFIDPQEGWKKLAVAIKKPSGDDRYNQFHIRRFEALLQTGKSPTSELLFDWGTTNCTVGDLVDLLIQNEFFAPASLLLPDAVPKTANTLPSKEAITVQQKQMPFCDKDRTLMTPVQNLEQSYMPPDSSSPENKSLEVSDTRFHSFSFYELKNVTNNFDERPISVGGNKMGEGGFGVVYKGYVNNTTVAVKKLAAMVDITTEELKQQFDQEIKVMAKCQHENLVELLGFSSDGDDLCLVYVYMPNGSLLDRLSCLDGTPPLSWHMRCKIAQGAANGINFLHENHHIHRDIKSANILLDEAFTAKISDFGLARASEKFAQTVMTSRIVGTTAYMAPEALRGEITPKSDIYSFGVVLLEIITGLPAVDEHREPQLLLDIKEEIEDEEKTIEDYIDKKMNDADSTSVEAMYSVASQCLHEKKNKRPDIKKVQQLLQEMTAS
Method: as §1

[8] = biological target: MAP3K4 (Homo sapiens, UniProt Q9Y6R4); details: MOLM-13, 2 h, 100 nM
Method: as §1

[9] = biological target: MAPKAPK3 (Homo sapiens, UniProt Q16644); details: MOLM-13; 100 nM, 2 hours; ATP Loop; read-out: Inhibition vs DMSO
Method: as §1

[10] = biological target: T3, MSK2 domain1 (Homo sapiens, UniProt O75676); details: MOLM-13, 2 h, 100 nM
T3 construct: MSK2 domain1
Method: as §1

[11] = biological target: MST2 (Homo sapiens, UniProt Q13188); details: MOLM-13; 100 nM, 2 hours; Lys1; read-out: Inhibition vs DMSO
Method: as §1

[12] = biological target: NEK1 (Homo sapiens, UniProt Q96PY6); details: MOLM-13; 100 nM, 2 hours; Lys2; read-out: Inhibition vs DMSO
Method: as §1

[13] = biological target: PCTAIRE2 (Homo sapiens, UniProt Q00537); details: MOLM-13; 100 nM, 2 hours; Lys2; read-out: Inhibition vs DMSO
Method: as §1

[14] = biological target: PIK3C3 (Homo sapiens, UniProt Q8NEB9); details: MOLM-13, 2 h, 100 nM, ATP, read-out: Inhibition vs DMSO
Method: as §1

[15] = biological target: PKN1 (Homo sapiens, UniProt Q16512); details: MOLM-13; 100 nM, 2 hours; Lys2; read-out: Inhibition vs DMSO
Method: as §1

[16] = biological target: SLK (Homo sapiens, UniProt Q9H2G2); details: MOLM-13; 100 nM, 2 hours; Lys2; read-out: Inhibition vs DMSO
Method: as §1

[17] = biological target: TAO2 (Homo sapiens, UniProt Q9UL54); details: MOLM-13; 100 nM, 2 hours; Lys2; read-out: Inhibition vs DMSO
Method: as §1

[18] = biological target: TLK2 (Homo sapiens, UniProt Q86UE8); details: MOLM-13; 100 nM, 2 hours; Lys2; read-out: Inhibition vs DMSO
Method: as §1

[19] = biological target: YANK3 (Homo sapiens, UniProt Q86UX6); details: MOLM-13; 100 nM, 2 hours; Lys2; read-out: Inhibition vs DMSO
Method: as §1

[20] = biological target: eEF2K (Homo sapiens, UniProt O00418); details: MOLM-13; 100 nM, 2 hours; ATP; read-out: Inhibition vs DMSO
Method: as §1

[21] = Lys1, read-out: Inhibition vs DMSO
[22] = Lys2, read-out: Inhibition vs DMSO

PIK3C3, sequence (Q8NEB9 whole entry): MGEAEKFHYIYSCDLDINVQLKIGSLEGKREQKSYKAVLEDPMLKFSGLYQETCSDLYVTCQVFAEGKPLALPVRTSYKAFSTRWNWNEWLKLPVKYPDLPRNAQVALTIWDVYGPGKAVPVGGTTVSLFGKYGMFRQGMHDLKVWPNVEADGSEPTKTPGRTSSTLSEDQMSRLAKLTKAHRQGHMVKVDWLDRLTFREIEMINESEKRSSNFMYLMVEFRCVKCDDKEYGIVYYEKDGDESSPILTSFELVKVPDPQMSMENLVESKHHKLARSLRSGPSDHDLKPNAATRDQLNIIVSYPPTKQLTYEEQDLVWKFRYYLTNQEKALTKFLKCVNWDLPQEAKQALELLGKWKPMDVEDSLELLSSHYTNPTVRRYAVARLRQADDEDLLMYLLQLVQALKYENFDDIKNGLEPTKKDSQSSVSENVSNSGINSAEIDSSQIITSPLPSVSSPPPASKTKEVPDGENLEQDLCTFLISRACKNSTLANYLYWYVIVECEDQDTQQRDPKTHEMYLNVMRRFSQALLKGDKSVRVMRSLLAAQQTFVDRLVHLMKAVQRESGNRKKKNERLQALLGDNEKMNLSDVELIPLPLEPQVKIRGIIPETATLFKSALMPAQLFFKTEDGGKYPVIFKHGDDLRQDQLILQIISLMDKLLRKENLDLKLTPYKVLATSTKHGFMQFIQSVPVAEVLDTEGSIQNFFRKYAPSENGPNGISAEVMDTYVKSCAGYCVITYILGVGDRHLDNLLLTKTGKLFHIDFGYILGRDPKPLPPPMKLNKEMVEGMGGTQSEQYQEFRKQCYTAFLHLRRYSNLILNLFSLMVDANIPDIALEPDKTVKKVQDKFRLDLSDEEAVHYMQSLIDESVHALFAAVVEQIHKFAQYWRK
T3 sequence (O75676 whole entry, the tested form may be a part): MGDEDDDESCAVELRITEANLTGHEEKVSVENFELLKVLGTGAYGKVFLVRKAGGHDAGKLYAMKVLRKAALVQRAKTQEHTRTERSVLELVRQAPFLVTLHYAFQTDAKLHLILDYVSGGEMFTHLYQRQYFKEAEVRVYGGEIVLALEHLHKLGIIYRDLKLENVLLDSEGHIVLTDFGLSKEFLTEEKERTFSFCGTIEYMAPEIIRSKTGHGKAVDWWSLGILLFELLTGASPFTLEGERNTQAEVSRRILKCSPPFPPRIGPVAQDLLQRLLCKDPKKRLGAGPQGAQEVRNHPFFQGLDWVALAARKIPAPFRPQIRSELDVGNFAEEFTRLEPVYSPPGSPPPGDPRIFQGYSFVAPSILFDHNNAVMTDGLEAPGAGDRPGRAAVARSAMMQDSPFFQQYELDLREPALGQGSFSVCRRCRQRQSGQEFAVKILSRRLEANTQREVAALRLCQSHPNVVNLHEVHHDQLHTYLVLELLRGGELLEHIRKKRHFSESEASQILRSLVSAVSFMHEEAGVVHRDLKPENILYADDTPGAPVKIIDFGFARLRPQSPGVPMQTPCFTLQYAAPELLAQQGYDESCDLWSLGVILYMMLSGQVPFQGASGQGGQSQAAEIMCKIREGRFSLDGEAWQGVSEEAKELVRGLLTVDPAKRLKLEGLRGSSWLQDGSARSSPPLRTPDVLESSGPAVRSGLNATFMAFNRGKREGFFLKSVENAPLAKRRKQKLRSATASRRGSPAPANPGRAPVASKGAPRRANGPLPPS
MAP3K4, sequence (Q9Y6R4 whole entry): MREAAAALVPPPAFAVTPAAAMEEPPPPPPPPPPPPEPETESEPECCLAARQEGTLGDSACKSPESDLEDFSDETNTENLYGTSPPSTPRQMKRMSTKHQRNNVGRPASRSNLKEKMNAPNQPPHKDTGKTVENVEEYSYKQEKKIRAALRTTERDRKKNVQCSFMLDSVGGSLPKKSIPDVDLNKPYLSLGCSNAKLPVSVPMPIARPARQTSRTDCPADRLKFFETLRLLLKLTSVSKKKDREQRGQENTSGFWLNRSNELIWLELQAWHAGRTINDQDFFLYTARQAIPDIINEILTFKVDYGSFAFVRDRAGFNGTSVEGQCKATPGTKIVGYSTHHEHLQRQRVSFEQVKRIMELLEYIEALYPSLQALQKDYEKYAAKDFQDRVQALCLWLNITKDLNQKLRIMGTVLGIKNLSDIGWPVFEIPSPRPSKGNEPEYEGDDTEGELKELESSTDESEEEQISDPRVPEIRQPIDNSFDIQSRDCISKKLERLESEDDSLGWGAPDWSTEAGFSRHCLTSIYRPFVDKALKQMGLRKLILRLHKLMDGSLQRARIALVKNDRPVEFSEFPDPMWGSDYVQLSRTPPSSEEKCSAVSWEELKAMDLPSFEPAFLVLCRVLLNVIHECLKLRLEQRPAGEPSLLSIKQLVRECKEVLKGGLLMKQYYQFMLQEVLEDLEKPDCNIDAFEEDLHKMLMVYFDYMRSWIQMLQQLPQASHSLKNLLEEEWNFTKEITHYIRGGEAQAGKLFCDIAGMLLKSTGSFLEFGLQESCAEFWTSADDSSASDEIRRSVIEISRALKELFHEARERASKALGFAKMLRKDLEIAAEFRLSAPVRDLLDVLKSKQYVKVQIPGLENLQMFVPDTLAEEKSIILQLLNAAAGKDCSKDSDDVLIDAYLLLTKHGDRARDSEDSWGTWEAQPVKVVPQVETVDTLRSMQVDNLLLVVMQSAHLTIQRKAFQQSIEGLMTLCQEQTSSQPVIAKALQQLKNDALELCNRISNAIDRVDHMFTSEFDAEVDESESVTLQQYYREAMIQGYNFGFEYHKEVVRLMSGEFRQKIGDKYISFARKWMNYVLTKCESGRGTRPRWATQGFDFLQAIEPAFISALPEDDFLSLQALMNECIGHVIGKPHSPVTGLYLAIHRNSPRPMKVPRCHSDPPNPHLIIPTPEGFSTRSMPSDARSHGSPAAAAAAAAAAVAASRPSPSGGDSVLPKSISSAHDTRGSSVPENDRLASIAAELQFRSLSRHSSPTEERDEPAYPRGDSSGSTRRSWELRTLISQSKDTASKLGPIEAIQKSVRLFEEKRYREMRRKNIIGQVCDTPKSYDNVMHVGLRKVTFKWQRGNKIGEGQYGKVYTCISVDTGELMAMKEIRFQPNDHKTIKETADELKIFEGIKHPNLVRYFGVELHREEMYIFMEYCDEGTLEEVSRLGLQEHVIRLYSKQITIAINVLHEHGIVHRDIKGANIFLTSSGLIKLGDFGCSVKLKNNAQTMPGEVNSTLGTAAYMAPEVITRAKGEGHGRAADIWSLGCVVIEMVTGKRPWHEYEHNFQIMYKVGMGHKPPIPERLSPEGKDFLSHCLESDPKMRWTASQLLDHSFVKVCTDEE
TAO2, sequence (Q9UL54 whole entry): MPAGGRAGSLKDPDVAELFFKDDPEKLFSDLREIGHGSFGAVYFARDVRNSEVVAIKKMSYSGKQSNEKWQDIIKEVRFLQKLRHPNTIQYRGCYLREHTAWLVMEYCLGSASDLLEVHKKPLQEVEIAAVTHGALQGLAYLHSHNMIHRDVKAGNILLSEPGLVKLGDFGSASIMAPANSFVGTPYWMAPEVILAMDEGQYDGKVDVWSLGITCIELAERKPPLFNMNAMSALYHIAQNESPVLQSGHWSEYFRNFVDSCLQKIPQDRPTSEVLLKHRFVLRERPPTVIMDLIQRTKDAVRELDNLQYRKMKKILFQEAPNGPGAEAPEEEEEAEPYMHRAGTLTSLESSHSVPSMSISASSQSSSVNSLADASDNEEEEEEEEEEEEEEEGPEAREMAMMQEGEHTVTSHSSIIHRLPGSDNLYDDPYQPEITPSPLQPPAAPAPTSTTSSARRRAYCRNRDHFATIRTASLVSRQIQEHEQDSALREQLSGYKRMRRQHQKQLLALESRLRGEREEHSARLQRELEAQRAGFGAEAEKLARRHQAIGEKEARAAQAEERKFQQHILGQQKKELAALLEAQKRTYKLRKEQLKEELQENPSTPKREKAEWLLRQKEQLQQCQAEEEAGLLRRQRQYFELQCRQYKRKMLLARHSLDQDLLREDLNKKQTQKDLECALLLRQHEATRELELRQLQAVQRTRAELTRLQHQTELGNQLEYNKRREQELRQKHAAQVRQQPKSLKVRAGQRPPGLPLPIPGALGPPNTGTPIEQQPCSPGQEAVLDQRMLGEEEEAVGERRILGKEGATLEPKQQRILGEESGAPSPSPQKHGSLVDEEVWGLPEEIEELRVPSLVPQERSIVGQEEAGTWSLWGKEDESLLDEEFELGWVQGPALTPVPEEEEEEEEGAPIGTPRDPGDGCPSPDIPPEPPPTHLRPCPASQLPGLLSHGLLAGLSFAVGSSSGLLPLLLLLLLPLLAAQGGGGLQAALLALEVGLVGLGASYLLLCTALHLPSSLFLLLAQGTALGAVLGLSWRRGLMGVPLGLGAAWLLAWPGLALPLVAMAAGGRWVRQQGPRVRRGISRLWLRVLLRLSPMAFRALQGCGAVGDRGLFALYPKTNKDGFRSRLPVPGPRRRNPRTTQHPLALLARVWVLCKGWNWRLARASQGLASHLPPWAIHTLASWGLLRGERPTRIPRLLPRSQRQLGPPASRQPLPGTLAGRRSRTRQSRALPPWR
PCTAIRE2, sequence (Q00537 whole entry): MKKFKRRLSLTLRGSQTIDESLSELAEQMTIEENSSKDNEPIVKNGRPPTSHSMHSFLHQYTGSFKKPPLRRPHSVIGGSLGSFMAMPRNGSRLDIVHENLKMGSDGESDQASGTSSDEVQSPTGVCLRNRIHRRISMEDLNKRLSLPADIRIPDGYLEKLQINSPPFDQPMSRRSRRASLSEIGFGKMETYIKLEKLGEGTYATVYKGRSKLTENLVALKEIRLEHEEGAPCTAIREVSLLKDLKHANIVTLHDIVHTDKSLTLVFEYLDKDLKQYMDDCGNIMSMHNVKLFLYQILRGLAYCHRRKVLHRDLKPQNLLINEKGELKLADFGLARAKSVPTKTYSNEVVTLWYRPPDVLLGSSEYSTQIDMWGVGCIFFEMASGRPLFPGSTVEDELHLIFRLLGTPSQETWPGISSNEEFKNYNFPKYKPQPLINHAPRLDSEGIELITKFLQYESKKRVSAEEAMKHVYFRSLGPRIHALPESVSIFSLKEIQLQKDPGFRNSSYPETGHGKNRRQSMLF

`CN1CCN(Cc2ccc(Nc3ncc(Cl)c(Nc4ccccc4S(=O)(=O)N(C)C)n3)cc2)CC1` [TP-0903] was tested, and the inhibition at 0.1 µM [1] was 44.5%, the inhibition at 0.1 µM [2] was 33.7% and the inhibition at 0.1 µM [3] was 86.1%. It also gave an inhibition at 0.1 µM [4] of 1%, an inhibition at 0.1 µM [5] of 2.9% and an inhibition at 0.1 µM [6, 21] of -4.8%. The inhibition at 0.1 µM [6, 22] was -10.5%, the “Inhibition vs DMSO” value ([7]; Lys1) was 13.2% and the “Inhibition vs DMSO” value ([7]; Lys2) was 18.7%. It also gave an inhibition at 0.1 µM [8, 21] of 8.8%, an inhibition at 0.1 µM [8, 22] of 6.6% and an inhibition at 0.1 µM [9] of -45.7%. For the same compound, the inhibition at 0.1 µM [10, 21] was 13.3%, the inhibition at 0.1 µM [10, 22] was 26.8% and the inhibition at 0.1 µM [11] was 7.5%. For the same compound, the inhibition at 0.1 µM [12] was -21.7%, the inhibition at 0.1 µM [13] was 20.4% and the inhibition at 0.1 µM ([14]; TEDGGKYPVIFKHGDDLR) was -23.9%. For the same compound, the inhibition at 0.1 µM ([14]; TEDGGKYPVIFKHGDDLRQDQLILQIISLMDK) was 2.6%, the inhibition at 0.1 µM [15] was -25.2% and the inhibition at 0.1 µM [16] was 72.2%. The inhibition at 0.1 µM [17] was 10.8%, the inhibition at 0.1 µM [18] was 18% and the inhibition at 0.1 µM [19] was -4.7%. The inhibition at 0.1 µM [20] was -29.5%.
